Read-outs that look alike come from different tables or passages of the source.
How the values were obtained:
[1] = In vivo formation of NAFB1 and NAHFB1 in rat kidney and liver (HPLC-ESI-MS/MS); conditions: kidney; FB1 2.77 or HFB1 2.47 μmol/kg body weight per day ip, 5 days
Excerpt: (§1) The study protocol was approved by the Institutional Animal Care and Use Committee, Richard B. Russell Agricultural Research Center, Athens, GA. Male Sprague–Dawley rats (Harlan Industries, Indianapolis, IN, USA), 7 weeks of age at receipt, were individually housed in stainless steel, wire mesh cages in an environmentally controlled room having a 12-h light/dark cycle. Food (2019 Global Rodent Diet, Teklad, Madison, WI, USA) and fresh tap water were provided ad libitum. After a 1 week acclimation period, the animals were randomly assigned to five groups (n = 2/group) having mean weights of 215 to 216 g (weight range of all animals, 211 to 220 g). For five consecutive days, they were observed, weighed, and given an intraperitoneal injection (ip) of 0 (vehicle), 0.5, 1.0, or 2.0 mg/kg body weight FB1 (provided by R. Eppley, US FDA), 1.0 mg/kg body weight HFB1 (positive control) (Voss et al. [2009]), or vehicle (0.9 % physiological saline). These doses corresponded to 0.69, 1.38, and 2.77 μmol FB1/kg body weight and 2.47 μmol/kg body weight HFB1 per day. In order to compare the effects of FB1 and HFB1, dosages will be expressed as molar concentrations and, on this basis, the high dose of FB1 is roughly equivalent to that of the positive control dose of HFB1. Dosing solutions were sterile filtered and administered at a volume rate of 10 ml/kg body weight. The animals were fasted overnight prior to administration of the final dose. The rats were euthanized (CO2 inhalation and exsanguination) 60 to 90 min following the final dose administration and examined by necropsy. The kidney and liver specimens were fixed in 10 % neutral buffered formalin, processed, and microscopically evaluated without knowledge of the animal’s identity or treatment group. Three representative liver and kidney specimens (100 mg each) were also collected, immediately frozen, and stored (−80 °C) until processed, at which time the tissues were thawed and homogenized in distilled/deionized water (1 ml water/100 mg tissue). The homogenates were lyophilized before they were shipped by overnight courier for the analysis of fumonisin metabolites and sphingolipids.
(§2) Lyophilized liver and kidney tissues (100 mg wet weight equivalents) were processed for the quantification of FB1, HFB1, NAFB1, NAHFB1, and sphingolipids. Preparation of the tissue samples was performed according to a previously published method (Harrer et al. [2013]). For the quantification of FB1 and HFB1, a d6-labeled derivative of FB1 (FB1-d6) was used as the internal standard. Synthetic derivatives with a heptadecanoic fatty acid (C17:0) residue were used as internal standards for the quantification of N-acyl-fumonisins and ceramides (N-C17:0-FB1, N-C17:0-HFB1, and N-C17:0-ceramide). The sphingoid bases and their phosphate derivatives were quantified using synthetic derivatives with a C17-acyl-backbone: sphingosine (C17:1), sphingosine-1-phosphate (C17:1), sphinganine (C17:0), sphinganine-1-phosphate (C17:0) as internal standards. The standards were dissolved in methanol:chloroform (2:1, v/v) and then mixed with the tissue samples. The samples spiked with internal standard were kept at room temperature for 30 min before being processed further. The internal standard-spiked samples were first extracted with ethyl acetate, isopropanol, and water (60:30:10, v/v/v) and a second time using methanol, chloroform, and water (60:30:10, v/v/v). The extracts were combined, the solvents removed by evaporation, and the dried samples stored at−80 °C till analyzed.
(§3) For the analysis, the samples were reconstituted in a mixture of water, methanol, and tetrahydrofurane (60:24:16, v/v/v). The NAFB1 and NAHFB1 derivatives having the following fatty acyl chain lengths were quantified by HPLC-MS/MS: C16:0, C18:0, C20:0, C22:0, C24:0, C26:0. Furthermore, we also quantified the unsaturated derivatives C24:1 and C26:1. The results are given as the sum of all N-acyl derivatives of FB1 or HFB1. […]

sphingolipid metabolism = assay: Sphingolipid levels in rat kidney and liver after ip FB1 or HFB1; assay type: in vivo; conditions: 5 days; for levels of sphingoid bases and 1-phosphates (total sphingosine, total sphinganine) in tissues compared to vehicle-treated controls: ip
Excerpt: as §1, §2

rat liver and kidney = assay: Histological examination of rat liver and kidney; assay type: in vivo; conditions: ip, 5 days; FB1 0.5, 1.0, 2.0 mg/kg or HFB1 1.0 mg/kg body weight per day; n = 2/group
Excerpt: The study protocol was approved by the Institutional Animal Care and Use Committee, Richard B. Russell Agricultural Research Center, Athens, GA. Male Sprague–Dawley rats (Harlan Industries, Indianapolis, IN, USA), 7 weeks of age at receipt, were individually housed in stainless steel, wire mesh cages in an environmentally controlled room having a 12-h light/dark cycle. Food (2019 Global Rodent Diet, Teklad, Madison, WI, USA) and fresh tap water were provided ad libitum. After a 1 week acclimation period, the animals were randomly assigned to five groups (n = 2/group) having mean weights of 215 to 216 g (weight range of all animals, 211 to 220 g). For five consecutive days, they were observed, weighed, and given an intraperitoneal injection (ip) of 0 (vehicle), 0.5, 1.0, or 2.0 mg/kg body weight FB1 (provided by R. Eppley, US FDA), 1.0 mg/kg body weight HFB1 (positive control) (Voss et al. [2009]), or vehicle (0.9 % physiological saline). […] In order to compare the effects of FB1 and HFB1, dosages will be expressed as molar concentrations and, on this basis, the high dose of FB1 is roughly equivalent to that of the positive control dose of HFB1. […] The kidney and liver specimens were fixed in 10 % neutral buffered formalin, processed, and microscopically evaluated without knowledge of the animal’s identity or treatment group. […]

[2] = design: method as in Martinez-Larranaga et al. 1999; conditions: single dose, ref Martinez-Larranaga et al. 1999, cited from earlier work
[3] = design: method as in Bulder et al. 2012; conditions: ref Bulder et al. 2012; cited from earlier work
[4] = rats fed with fumonisin-contaminated diet; ref Riley and Voss 2006; cited from earlier work
[5] = Tissue FB1 and HFB1 concentrations in rat kidney and liver (HPLC-ESI-MS/MS); assay type: in vivo; conditions: HFB1 2.47 μmol/kg body weight per day ip, 5 days
Excerpt: as §1, §2, §3

[6] = kidney, dose High: 2.77 μmol FB1/kg or 2.47 μmol HFB1/kg body weight per day ip
[7] = kidney, dose Low: 0.69 μmol FB1/kg body weight per day ip
[8] = kidney, dose Mid: 1.38 μmol FB1/kg body weight per day ip
[9] = liver, dose High: 2.77 μmol FB1/kg or 2.47 μmol HFB1/kg body weight per day ip
[10] = liver, dose Low: 0.69 μmol FB1/kg body weight per day ip
[11] = liver, dose Mid: 1.38 μmol FB1/kg body weight per day ip

Compound: CCCC[C@@H](C)[C@@H](OC(=O)C[C@@H](CC(=O)O)C(=O)O)[C@H](C[C@@H](C)C[C@H](O)CCCC[C@@H](O)C[C@H](O)[C@H](C)N)OC(=O)C[C@@H](CC(=O)O)C(=O)O [FB1, Fumonisin B1]
- metabolites of the dosed mycotoxin found in the kidney [1]: less than 0.5 nmol/g
- tissue ceramide concentrations (sphingolipid metabolism; kidney and liver, FB1 ip): decreased in both tissues
- levels of sphingoid bases and 1-phosphates (total sphingosine, total sphinganine) in tissues compared to vehicle-treated controls (sphingolipid metabolism; kidney and liver): increased amounts
- Sa/So ratio (sphingolipid metabolism; [6]): 3.8 ± 1.8
- sphinganine (Sa) (sphingolipid metabolism; [6]): 207 ± 79.9 nmol/g
- sphinganine-1-phosphate (Sa1P) (sphingolipid metabolism; [6]): 19.9 ± 1.0 nmol/g
- sphingosine (So) (sphingolipid metabolism; [6]): 56 ± 6.2 nmol/g
- sphingosine-1-phospate (So1P) (sphingolipid metabolism; [6]): 21.6 ± 4.5 nmol/g
- Sa/So ratio (sphingolipid metabolism; [7]): 4.1 ± 1.0
- sphinganine (Sa) (sphingolipid metabolism; [7]): 252 ± 15.6 nmol/g
- sphinganine-1-phosphate (Sa1P) (sphingolipid metabolism; [7]): 16.7 ± 0.5 nmol/g
- sphingosine (So) (sphingolipid metabolism; [7]): 63 ± 11.5 nmol/g
- sphingosine-1-phospate (So1P) (sphingolipid metabolism; [7]): 21.4 ± 4.1 nmol/g
- Sa/So ratio (sphingolipid metabolism; [8]): 2.5 ± 0.2
- sphinganine (Sa) (sphingolipid metabolism; [8]): 146 ± 11.3 nmol/g
- sphinganine-1-phosphate (Sa1P) (sphingolipid metabolism; [8]): 11.3 ± 1.5 nmol/g
- sphingosine (So) (sphingolipid metabolism; [8]): 59 ± 8.3 nmol/g
- sphingosine-1-phospate (So1P) (sphingolipid metabolism; [8]): 20.8 ± 0.7 nmol/g
- Sa/So ratio (sphingolipid metabolism; [9]): 5.9 ± 0.0
- sphinganine (Sa) (sphingolipid metabolism; [9]): 81 ± 17.1 nmol/g
- sphinganine-1-phosphate (Sa1P) (sphingolipid metabolism; [9]): 0.9 ± 0.5 nmol/g
- sphingosine (So) (sphingolipid metabolism; [9]): 14 ± 2.9 nmol/g
- sphingosine-1-phospate (So1P) (sphingolipid metabolism; [9]): 1.0 ± 0.3 nmol/g
- Sa/So ratio (sphingolipid metabolism; [10]): 4.2 ± 0.9
- sphinganine (Sa) (sphingolipid metabolism; [10]): 68 ± 27.6 nmol/g
- sphinganine-1-phosphate (Sa1P) (sphingolipid metabolism; [10]): 0.2 ± 0.2 nmol/g
- sphingosine (So) (sphingolipid metabolism; [10]): 16 ± 3.3 nmol/g
- sphingosine-1-phospate (So1P) (sphingolipid metabolism; [10]): 0.4 ± 0.2 nmol/g
- Sa/So ratio (sphingolipid metabolism; [11]): 5.5 ± 1.2
- sphinganine (Sa) (sphingolipid metabolism; [11]): 88 ± 15.1 nmol/g
- sphinganine-1-phosphate (Sa1P) (sphingolipid metabolism; [11]): 0.4 ± 0.1 nmol/g
- sphingosine (So) (sphingolipid metabolism; [11]): 17 ± 6.4 nmol/g
- sphingosine-1-phospate (So1P) (sphingolipid metabolism; [11]): 0.8 ± 0.0 nmol/g
- microscopic appearance of kidney and liver (rat liver and kidney): Mild to moderate apoptotic, mitotic, and other effects consistent with fumonisin exposure
- AUCtissue/AUCplasma ratio ([2]; kidney): 29.9
- AUCtissue/AUCplasma ratio ([2]; liver): 2.03
- absorption after oral exposure [3]: < 5 % of dose
- FB1 concentration (ng/g wet weight) in the kidney relative to the liver [4]: approximately tenfold higher

Compound: CCCC[C@@H](C)[C@@H](O)[C@@H](O)C[C@@H](C)C[C@H](O)CCCC[C@@H](O)C[C@H](O)[C@H](C)N [HFB1, Hydrolyzed fumonisin B1, reference compound]
- HFB1 molar concentration in the liver relative to the kidney [5]: about sixfold higher
- HFB1 molar concentration in tissue ([5]; kidney): 0.27 nmol/g
- unmetabolized HFB1 accumulated in tissue, % of the total dose (TD) ([5]; kidney): < 0.1 % TD
- total amount of HFB1 species in tissue, % of the total dose (TD) ([5]; kidney, HFB1 plus N-acyl metabolites): 0.03 % TD
- HFB1 molar concentration in tissue ([5]; liver): 1.78 nmol/g
- unmetabolized HFB1 accumulated in tissue, % of the total dose (TD) ([5]; liver): 0.7 % TD
- metabolites of the dosed mycotoxin found in the kidney [1]: less than 0.5 nmol/g
- levels of sphingoid bases and 1-phosphates (total sphingosine, total sphinganine) in tissues compared to vehicle-treated controls (sphingolipid metabolism; kidney and liver): did not cause any significant changes
- Sa/So ratio (sphingolipid metabolism; [6]): 0.3 ± 0.0
- sphinganine (Sa) (sphingolipid metabolism; [6]): 3 ± 0.7 nmol/g
- sphinganine-1-phosphate (Sa1P) (sphingolipid metabolism; [6]): 0.6 ± 0.4 nmol/g
- sphingosine (So) (sphingolipid metabolism; [6]): 9 ± 2.8 nmol/g
- sphingosine-1-phospate (So1P) (sphingolipid metabolism; [6]): 0.4 ± 0.1 nmol/g
- Sa/So ratio (sphingolipid metabolism; [9]): 0.5 ± 0.4
- sphinganine (Sa) (sphingolipid metabolism; [9]): 2 ± 1 nmol/g
- sphinganine-1-phosphate (Sa1P) (sphingolipid metabolism; [9]): 0.1 ± 0.1 nmol/g
- sphingosine (So) (sphingolipid metabolism; [9]): 3 ± 0.2 nmol/g
- sphingosine-1-phospate (So1P) (sphingolipid metabolism; [9]): 0.2 ± 0.0 nmol/g
- microscopic appearance of kidney and liver (rat liver and kidney): could not be differentiated from that of tissues from the vehicle control group
